Assay results: patent publication US11470846B2, “Herbicidal pyridino-/pyrimidino-thiazoles” (SYNGENTA PARTICIPATIONS AG, priority 2014, dated 2022)

Assays:
Type in all cases: in vivo
[1] = tested on: Echinochloa crus-galli (ECHCG); test: Post-emergence herbicidal activity; details: post-emergence application, 1000 g/Ha, evaluated after 13 days, scale 0-5
In short: (§1)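 Scores run from 0 (no damage) to 5 (total plant damage), assessed 13 days after spraying. Seedlings were treated 8 days after sowing with an aqueous spray from an acetone/water (50:50) formulation with 0.5% Tween 20, then kept at 24/16 °C day/night, 14 h light.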

Avena fatua (AVEFA) [2] = test: Post-emergence herbicidal activity; details: post-emergence application, 1000 g/Ha, evaluated after 13 days, scale 0-5
In short: as §1

Oryza sativa (ORYSA) [3] = test: Post-emergence herbicidal activity; details: post-emergence application, 1000 g/Ha, evaluated after 13 days, scale 0-5
In short: as §1

[4] = tested on: Alopecurus myosuroides (ALOMY); test: Post-emergence herbicidal activity; details: post-emergence application, 1000 g/Ha, evaluated after 13 days, scale 0-5
In short: as §1

Lolium perenne (LOLPE) [5] = test: Post-emergence herbicidal activity; details: post-emergence application, 1000 g/Ha, evaluated after 13 days, scale 0-5
In short: as §1

[6] = tested on: Triticum aestivium (TRZAW); test: Post-emergence herbicidal activity; details: post-emergence application, 1000 g/Ha, evaluated after 13 days, scale 0-5
In short: as §1

[7] = tested on: Echinochloa crus-galli (ECHCG); test: Pre-emergence herbicidal activity; details: pre-emergence application, 1000 g/Ha, evaluated after 13 days, scale 0-5
In short: (§2)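 Seeds sown in standard soil, sprayed one day after sowing with active ingredient formulated in acetone/water (50:50) with 0.5% Tween 20. Glasshouse at 24/16 °C day/night, 14 h light, 65% humidity, watered twice daily; damage scored after 13 days on a 0–5 scale (5 = total damage).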

Avena fatua (AVEFA) [8] = test: Pre-emergence herbicidal activity; details: pre-emergence application, 1000 g/Ha, evaluated after 13 days, scale 0-5
In short: as §2

Oryza sativa (ORYSA) [9] = test: Pre-emergence herbicidal activity; details: pre-emergence application, 1000 g/Ha, evaluated after 13 days, scale 0-5
In short: as §2

[10] = tested on: Alopecurus myosuroides (ALOMY); test: Pre-emergence herbicidal activity; details: pre-emergence application, 1000 g/Ha, evaluated after 13 days, scale 0-5
In short: as §2

Lolium perenne (LOLPE) [11] = test: Pre-emergence herbicidal activity; details: pre-emergence application, 1000 g/Ha, evaluated after 13 days, scale 0-5
In short: as §2

[12] = tested on: Triticum aestivium (TRZAW); test: Pre-emergence herbicidal activity; details: pre-emergence application, 1000 g/Ha, evaluated after 13 days, scale 0-5
In short: as §2

Setaria faberi (SETFA) [13] = test: Post-emergence herbicidal activity; details: post-emergence application, 1000 g/Ha, evaluated after 13 days, scale 0-5
In short: as §1

Zea Mays (ZEAMX) [14] = test: Post-emergence herbicidal activity; details: post-emergence application, 1000 g/Ha, evaluated after 13 days, scale 0-5
In short: as §1

[15] = tested on: Amaranthus retroflexus (AMARE); test: Post-emergence herbicidal activity; details: post-emergence application, 1000 g/Ha, evaluated after 13 days, scale 0-5
In short: as §1

[16] = tested on: Abutilon theophrasti (ABUTH); test: Post-emergence herbicidal activity; details: post-emergence application, 1000 g/Ha, evaluated after 13 days, scale 0-5
In short: as §1

Setaria faberi (SETFA) [17] = test: Pre-emergence herbicidal activity; details: pre-emergence application, 1000 g/Ha, evaluated after 13 days, scale 0-5
In short: as §2

Zea Mays (ZEAMX) [18] = test: Pre-emergence herbicidal activity; details: pre-emergence application, 1000 g/Ha, evaluated after 13 days, scale 0-5
In short: as §2

[19] = tested on: Amaranthus retroflexus (AMARE); test: Pre-emergence herbicidal activity; details: pre-emergence application, 1000 g/Ha, evaluated after 13 days, scale 0-5
In short: as §2

[20] = tested on: Abutilon theophrasti (ABUTH); test: Pre-emergence herbicidal activity; details: pre-emergence application, 1000 g/Ha, evaluated after 13 days, scale 0-5
In short: as §2

Compound | Control of weed species, ECHCG (damage score) ([1]; Table 7) | Control of weed species, AVEFA (damage score) (Avena fatua (AVEFA) [2]) | Control of weed species, ORYSA (damage score) (Oryza sativa (ORYSA) [3]) | Control of weed species, ALOMY (damage score) [4] | Control of weed species, LOLPE (damage score) (Lolium perenne (LOLPE) [5]; Table 7) | Control of weed species, TRZAW (damage score) [6] | Control of weed species, ECHCG (damage score) ([7]; Table 5) | Control of weed species, AVEFA (damage score) (Avena fatua (AVEFA) [8]) | Control of weed species, SETFA (damage score) (Setaria faberi (SETFA) [13]) | Control of weed species, ECHCG (damage score) ([1]; Table 8) | Control of weed species, ZEAMX (damage score) (Zea Mays (ZEAMX) [14]) | Control of weed species, AMARE (damage score) [15] | Control of weed species, LOLPE (damage score) (Lolium perenne (LOLPE) [5]; Table 8) | Control of weed species, ABUTH (damage score) [16] | Control of weed species, SETFA (damage score) (Setaria faberi (SETFA) [17]) | Control of weed species, ECHCG (damage score) ([7]; Table 6) | Control of weed species, ZEAMX (damage score) (Zea Mays (ZEAMX) [18]) | Control of weed species, AMARE (damage score) [19] | Control of weed species, LOLPE (damage score) (Lolium perenne (LOLPE) [11]; Table 6) | Control of weed species, ABUTH (damage score) [20] | further results
CN(C(=O)OC(C)(C)C)c1sc(-c2cncc(F)c2)nc1I [Compound A52] | 4 | 4 | 0 | 1 | 3 | 1 | 2 | 3 | – | – | – | – | – | – | – | – | – | – | – | – | Control of weed species, ORYSA (damage score) (Oryza sativa (ORYSA) [9]): 1; Control of weed species, ALOMY (damage score) [10]: 0; Control of weed species, LOLPE (damage score) (Lolium perenne (LOLPE) [11]; Table 5): 3; Control of weed species, TRZAW (damage score) [12]: 0
Cc1nc(-c2cc(F)c[n+]([O-])c2)sc1N(C)C(=O)OC(C)(C)C [Compound A62, tert-butyl N-[2-(5-fluoro-3-pyridyl N-oxide)-4-methyl-thiazol-5-yl]-N-methyl-carbamate] | 4 | 4 | 0 | 1 | 4 | 1 | 3 | 2 | – | – | – | – | – | – | – | – | – | – | – | – | Control of weed species, ORYSA (damage score) (Oryza sativa (ORYSA) [9]): 1; Control of weed species, ALOMY (damage score) [10]: 2; Control of weed species, LOLPE (damage score) (Lolium perenne (LOLPE) [11]; Table 5): 2; Control of weed species, TRZAW (damage score) [12]: 1
C#CCOC(=O)N(C)c1sc(-c2cccnc2)nc1C [Compound B1, prop-2-ynyl N-methyl-N-[4-methyl-2-(3-pyridyl)thiazol-5-yl]carbamate] | – | – | – | – | – | – | – | – | 5 | 4 | 5 | 1 | 3 | 1 | 5 | 2 | 5 | 2 | 3 | 2 | –
C#CC(C)OC(=O)N(C)c1sc(-c2cccnc2)nc1C (stereo not drawn) [Compound B2, 1-methylprop-2-ynyl N-methyl-N-[4-methyl-2-(3-pyridyl)thiazol-5-yl]carbamate] | – | – | – | – | – | – | – | – | 5 | 2 | 4 | 2 | 4 | 2 | 5 | 1 | 5 | 3 | 3 | 3 | –
C#CC(C)(C)OC(=O)N(C)c1sc(-c2cccnc2)nc1C [Compound B3, 1,1-dimethylprop-2-ynyl N-methyl-N-[4-methyl-2-(3-pyridyl)thiazol-5-yl]carbamate] | – | – | – | – | – | – | – | – | 5 | 4 | 5 | 2 | 4 | 1 | 4 | 3 | 5 | 3 | 3 | 4 | –
